In PubChem BioAssay (NCI):
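Following 48 hours of exposure in 96-well plates, responses at five concentrations were used to interpolate endpoints linearly. GI50 is the concentration that inhibits growth by half. Definition used: TGI = concentration required for complete inhibition of growth.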

Key:
Assay in all cases: NCI-60 cell line screen, 48 h
786-0 renal = tested on: 786-0 renal
A498 renal = tested on: A498 renal
A549 NSCLC = tested on: A549 NSCLC
ACHN renal = tested on: ACHN renal
BT-549 breast = tested on: BT-549 breast
CAKI-1 renal = tested on: CAKI-1 renal
CCRF-CEM leukemia = tested on: CCRF-CEM leukemia
COLO 205 colon = tested on: COLO 205 colon
DU-145 prostate = tested on: DU-145 prostate
EKVX NSCLC = tested on: EKVX NSCLC
HCC-2998 colon = tested on: HCC-2998 colon
HCT-116 colon = tested on: HCT-116 colon
HCT-15 colon = tested on: HCT-15 colon
HL-60(TB) leukemia = tested on: HL-60(TB) leukemia
HOP-62 NSCLC = tested on: HOP-62 NSCLC
HOP-92 NSCLC = tested on: HOP-92 NSCLC
HS 578T breast = tested on: HS 578T breast
HT29 colon = tested on: HT29 colon
IGROV1 ovarian = tested on: IGROV1 ovarian
K-562 leukemia = tested on: K-562 leukemia
KM12 colon = tested on: KM12 colon
LOX IMVI melanoma = tested on: LOX IMVI melanoma
M14 melanoma = tested on: M14 melanoma
MALME-3M melanoma = tested on: MALME-3M melanoma
MCF7 breast = tested on: MCF7 breast
MDA-MB-231 breast = tested on: MDA-MB-231 breast
MDA-MB-435 = tested on: MDA-MB-435
MOLT-4 leukemia = tested on: MOLT-4 leukemia
NCI-H226 lung = tested on: NCI-H226 lung
NCI-H23 lung = tested on: NCI-H23 lung
NCI-H460 lung = tested on: NCI-H460 lung
NCI-H522 lung = tested on: NCI-H522 lung
NCI/ADR-RES ovarian = tested on: NCI/ADR-RES ovarian
OVCAR-3 ovarian = tested on: OVCAR-3 ovarian
OVCAR-4 ovarian = tested on: OVCAR-4 ovarian
OVCAR-5 ovarian = tested on: OVCAR-5 ovarian
OVCAR-8 ovarian = tested on: OVCAR-8 ovarian
PC-3 prostate = tested on: PC-3 prostate
RPMI-8226 leukemia = tested on: RPMI-8226 leukemia
RXF 393 renal = tested on: RXF 393 renal
SF-268 CNS = tested on: SF-268 CNS
SF-295 CNS = tested on: SF-295 CNS
SF-539 CNS = tested on: SF-539 CNS
SK-MEL-2 melanoma = tested on: SK-MEL-2 melanoma
SK-MEL-28 melanoma = tested on: SK-MEL-28 melanoma
SK-MEL-5 melanoma = tested on: SK-MEL-5 melanoma
SK-OV-3 ovarian = tested on: SK-OV-3 ovarian
SN12C renal = tested on: SN12C renal
SNB-19 CNS = tested on: SNB-19 CNS
SNB-75 CNS = tested on: SNB-75 CNS
SR leukemia = tested on: SR leukemia
SW-620 colon = tested on: SW-620 colon
T-47D breast = tested on: T-47D breast
TK-10 renal = tested on: TK-10 renal
U251 CNS = tested on: U251 CNS
UACC-257 melanoma = tested on: UACC-257 melanoma
UACC-62 melanoma = tested on: UACC-62 melanoma
UO-31 renal = tested on: UO-31 renal

Structure (SMILES): COc1ccc(/C=N/C2=C(C#N)C(c3ccccc3)c3c(ccc4ccccc34)O2)cc1 (centres undefined)
- GI50 (786-0 renal): 4.48 µM
- TGI (786-0 renal): 38.7 µM
- GI50 (A498 renal): 0.594 µM
- TGI (A498 renal): 6.18 µM
- GI50 (A549 NSCLC): 1.99 µM
- TGI (A549 NSCLC): > 100 µM
- GI50 (ACHN renal): 4.09 µM
- TGI (ACHN renal): 54.4 µM
- GI50 (BT-549 breast): 1.17 µM
- TGI (BT-549 breast): 20.9 µM
- GI50 (CAKI-1 renal): 0.457 µM
- TGI (CAKI-1 renal): 20.4 µM
- GI50 (CCRF-CEM leukemia): 0.751 µM
- TGI (CCRF-CEM leukemia): > 100 µM
- GI50 (COLO 205 colon): 2.36 µM
- TGI (COLO 205 colon): 21.2 µM
- GI50 (DU-145 prostate): 3.26 µM
- TGI (DU-145 prostate): 18.6 µM
- GI50 (EKVX NSCLC): 5.02 µM
- TGI (EKVX NSCLC): > 100 µM
- GI50 (HCC-2998 colon): 3.81 µM
- TGI (HCC-2998 colon): 31.5 µM
- GI50 (HCT-116 colon): 0.516 µM
- TGI (HCT-116 colon): 19.2 µM
- GI50 (HCT-15 colon): 0.564 µM
- TGI (HCT-15 colon): 29 µM
- GI50 (HL-60(TB) leukemia): 0.649 µM
- TGI (HL-60(TB) leukemia): 6 µM
- GI50 (HOP-62 NSCLC): 1.77 µM
- TGI (HOP-62 NSCLC): 60.1 µM
- GI50 (HOP-92 NSCLC): 1.16 µM
- TGI (HOP-92 NSCLC): 18.2 µM
- GI50 (HS 578T breast): 2.15 µM
- TGI (HS 578T breast): 23.8 µM
- GI50 (HT29 colon): 0.702 µM
- TGI (HT29 colon): 15.3 µM
- GI50 (IGROV1 ovarian): 0.57 µM
- TGI (IGROV1 ovarian): 39.3 µM
- GI50 (K-562 leukemia): 0.37 µM
- TGI (K-562 leukemia): > 100 µM
- GI50 (KM12 colon): 1.16 µM
- TGI (KM12 colon): 35.4 µM
- GI50 (LOX IMVI melanoma): 2.01 µM
- TGI (LOX IMVI melanoma): 22.8 µM
- GI50 (M14 melanoma): 0.459 µM
- TGI (M14 melanoma): 9.66 µM
- GI50 (MALME-3M melanoma): 0.649 µM
- TGI (MALME-3M melanoma): 40.4 µM
- GI50 (MCF7 breast): 0.586 µM
- TGI (MCF7 breast): 24.5 µM
- GI50 (MDA-MB-231 breast): 2.5 µM
- TGI (MDA-MB-231 breast): 22.8 µM
- GI50 (MDA-MB-435): 0.273 µM
- TGI (MDA-MB-435): 0.834 µM
- GI50 (MOLT-4 leukemia): 1.75 µM
- TGI (MOLT-4 leukemia): > 100 µM
- GI50 (NCI-H226 lung): 2.17 µM
- TGI (NCI-H226 lung): 54.8 µM
- GI50 (NCI-H23 lung): 3.41 µM
- TGI (NCI-H23 lung): > 100 µM
- GI50 (NCI-H460 lung): 1.37 µM
- TGI (NCI-H460 lung): 47.1 µM
- GI50 (NCI-H522 lung): 0.388 µM
- TGI (NCI-H522 lung): 37.6 µM
- GI50 (NCI/ADR-RES ovarian): 0.916 µM
- TGI (NCI/ADR-RES ovarian): > 100 µM
- GI50 (OVCAR-3 ovarian): 0.464 µM
- TGI (OVCAR-3 ovarian): 10.2 µM
- GI50 (OVCAR-4 ovarian): 8.75 µM
- TGI (OVCAR-4 ovarian): > 100 µM
- GI50 (OVCAR-5 ovarian): 4.53 µM
- TGI (OVCAR-5 ovarian): 37.7 µM
- GI50 (OVCAR-8 ovarian): 4.07 µM
- TGI (OVCAR-8 ovarian): > 100 µM
- GI50 (PC-3 prostate): 1.22 µM
- TGI (PC-3 prostate): 18.8 µM
- GI50 (RPMI-8226 leukemia): 2.66 µM
- TGI (RPMI-8226 leukemia): 35.3 µM
- GI50 (RXF 393 renal): 1.49 µM
- TGI (RXF 393 renal): 7.19 µM
- GI50 (SF-268 CNS): 2.85 µM
- TGI (SF-268 CNS): 65.3 µM
- GI50 (SF-295 CNS): 0.482 µM
- TGI (SF-295 CNS): 11.8 µM
- GI50 (SF-539 CNS): 1.65 µM
- TGI (SF-539 CNS): 10.4 µM
- GI50 (SK-MEL-2 melanoma): 3.97 µM
- TGI (SK-MEL-2 melanoma): > 100 µM
- GI50 (SK-MEL-28 melanoma): 7.14 µM
- TGI (SK-MEL-28 melanoma): 59.8 µM
- GI50 (SK-MEL-5 melanoma): 1.74 µM
- TGI (SK-MEL-5 melanoma): 18.2 µM
- GI50 (SK-OV-3 ovarian): 4.95 µM
- TGI (SK-OV-3 ovarian): > 100 µM
- GI50 (SN12C renal): 4.23 µM
- TGI (SN12C renal): 26.2 µM
- GI50 (SNB-19 CNS): 2.06 µM
- TGI (SNB-19 CNS): 56.2 µM
- GI50 (SNB-75 CNS): 0.466 µM
- TGI (SNB-75 CNS): 4.01 µM
- GI50 (SR leukemia): 0.713 µM
- TGI (SR leukemia): > 100 µM
- GI50 (SW-620 colon): 0.732 µM
- TGI (SW-620 colon): > 100 µM
- GI50 (T-47D breast): 2.41 µM
- TGI (T-47D breast): > 100 µM
- GI50 (TK-10 renal): 19.1 µM
- TGI (TK-10 renal): > 100 µM
- GI50 (U251 CNS): 1.87 µM
- TGI (U251 CNS): 21.1 µM
- GI50 (UACC-257 melanoma): 23.4 µM
- TGI (UACC-257 melanoma): > 100 µM
- GI50 (UACC-62 melanoma): 0.711 µM
- TGI (UACC-62 melanoma): > 100 µM
- GI50 (UO-31 renal): 1.09 µM
- TGI (UO-31 renal): 37.7 µM

Structure (SMILES): CNC(=O)N(C1=NCC(C)S1)c1ccc(C)c(C)c1 (centres undefined)
- TGI (786-0 renal): > 48.8 µM
- TGI (A498 renal): 17 µM
- TGI (A549 NSCLC): > 100 µM
- TGI (ACHN renal): > 76.5 µM
- TGI (BT-549 breast): > 100 µM
- TGI (CAKI-1 renal): 20.6 µM
- TGI (CCRF-CEM leukemia): > 62.8 µM
- TGI (COLO 205 colon): > 44.6 µM
- TGI (DU-145 prostate): > 100 µM
- TGI (EKVX NSCLC): 70.4 µM
- TGI (HCC-2998 colon): 24.1 µM
- TGI (HCT-116 colon): > 76.8 µM
- TGI (HCT-15 colon): > 54 µM
- TGI (HL-60(TB) leukemia): 4.1 µM
- TGI (HOP-62 NSCLC): > 100 µM
- TGI (HOP-92 NSCLC): > 29.5 µM
- TGI (HS 578T breast): > 100 µM
- TGI (HT29 colon): 12.7 µM
- TGI (IGROV1 ovarian): > 100 µM
- TGI (K-562 leukemia): > 20.1 µM
- TGI (KM12 colon): > 55.7 µM
- TGI (LOX IMVI melanoma): > 48.5 µM
- TGI (M14 melanoma): > 42.3 µM
- TGI (MALME-3M melanoma): 55.2 µM
- TGI (MCF7 breast): 26.6 µM
- TGI (MDA-MB-231 breast): > 100 µM
- TGI (MDA-MB-435): 3.49 µM
- TGI (MOLT-4 leukemia): > 59.2 µM
- TGI (NCI-H226 lung): > 100 µM
- TGI (NCI-H23 lung): > 100 µM
- TGI (NCI-H460 lung): 42.6 µM
- TGI (NCI-H522 lung): 17.1 µM
- TGI (NCI/ADR-RES ovarian): > 20.4 µM
- TGI (OVCAR-3 ovarian): 8.4 µM
- TGI (OVCAR-4 ovarian): > 100 µM
- TGI (OVCAR-5 ovarian): > 100 µM
- TGI (OVCAR-8 ovarian): 45.7 µM
- TGI (PC-3 prostate): > 55 µM
- TGI (RPMI-8226 leukemia): 15.1 µM
- TGI (RXF 393 renal): 8.31 µM
- TGI (SF-268 CNS): 40.6 µM
- TGI (SF-295 CNS): > 73.6 µM
- TGI (SF-539 CNS): > 25.6 µM
- TGI (SK-MEL-2 melanoma): 15.5 µM
- TGI (SK-MEL-28 melanoma): > 92.8 µM
- TGI (SK-MEL-5 melanoma): 19.1 µM
- TGI (SK-OV-3 ovarian): > 93 µM
- TGI (SN12C renal): > 87.2 µM
- TGI (SNB-19 CNS): > 100 µM
- TGI (SNB-75 CNS): > 24.7 µM
- TGI (SR leukemia): > 71.7 µM
- TGI (SW-620 colon): > 100 µM
- TGI (T-47D breast): > 100 µM
- TGI (TK-10 renal): > 68.2 µM
- TGI (U251 CNS): > 36.8 µM
- TGI (UACC-257 melanoma): > 78.1 µM
- TGI (UACC-62 melanoma): > 100 µM
- TGI (UO-31 renal): > 78.7 µM
